From patent publication US20230026271A1, “Piperazine Compounds for Inhibiting CPS1” (Eisai R&D Management Co., Ltd., priority 2019, published 2023)

Target: T1, CPS1 (Homo sapiens, UniProt P31327)
T1 construct: The full length, human CPS1 gene was cloned into pFastBac HTA; His6 (from the pFastBac HTA vector); made in house; host or cells: SF21 insect cells (baculovirus, Bac-to-bac)
T1 sequence (P31327 39-1500): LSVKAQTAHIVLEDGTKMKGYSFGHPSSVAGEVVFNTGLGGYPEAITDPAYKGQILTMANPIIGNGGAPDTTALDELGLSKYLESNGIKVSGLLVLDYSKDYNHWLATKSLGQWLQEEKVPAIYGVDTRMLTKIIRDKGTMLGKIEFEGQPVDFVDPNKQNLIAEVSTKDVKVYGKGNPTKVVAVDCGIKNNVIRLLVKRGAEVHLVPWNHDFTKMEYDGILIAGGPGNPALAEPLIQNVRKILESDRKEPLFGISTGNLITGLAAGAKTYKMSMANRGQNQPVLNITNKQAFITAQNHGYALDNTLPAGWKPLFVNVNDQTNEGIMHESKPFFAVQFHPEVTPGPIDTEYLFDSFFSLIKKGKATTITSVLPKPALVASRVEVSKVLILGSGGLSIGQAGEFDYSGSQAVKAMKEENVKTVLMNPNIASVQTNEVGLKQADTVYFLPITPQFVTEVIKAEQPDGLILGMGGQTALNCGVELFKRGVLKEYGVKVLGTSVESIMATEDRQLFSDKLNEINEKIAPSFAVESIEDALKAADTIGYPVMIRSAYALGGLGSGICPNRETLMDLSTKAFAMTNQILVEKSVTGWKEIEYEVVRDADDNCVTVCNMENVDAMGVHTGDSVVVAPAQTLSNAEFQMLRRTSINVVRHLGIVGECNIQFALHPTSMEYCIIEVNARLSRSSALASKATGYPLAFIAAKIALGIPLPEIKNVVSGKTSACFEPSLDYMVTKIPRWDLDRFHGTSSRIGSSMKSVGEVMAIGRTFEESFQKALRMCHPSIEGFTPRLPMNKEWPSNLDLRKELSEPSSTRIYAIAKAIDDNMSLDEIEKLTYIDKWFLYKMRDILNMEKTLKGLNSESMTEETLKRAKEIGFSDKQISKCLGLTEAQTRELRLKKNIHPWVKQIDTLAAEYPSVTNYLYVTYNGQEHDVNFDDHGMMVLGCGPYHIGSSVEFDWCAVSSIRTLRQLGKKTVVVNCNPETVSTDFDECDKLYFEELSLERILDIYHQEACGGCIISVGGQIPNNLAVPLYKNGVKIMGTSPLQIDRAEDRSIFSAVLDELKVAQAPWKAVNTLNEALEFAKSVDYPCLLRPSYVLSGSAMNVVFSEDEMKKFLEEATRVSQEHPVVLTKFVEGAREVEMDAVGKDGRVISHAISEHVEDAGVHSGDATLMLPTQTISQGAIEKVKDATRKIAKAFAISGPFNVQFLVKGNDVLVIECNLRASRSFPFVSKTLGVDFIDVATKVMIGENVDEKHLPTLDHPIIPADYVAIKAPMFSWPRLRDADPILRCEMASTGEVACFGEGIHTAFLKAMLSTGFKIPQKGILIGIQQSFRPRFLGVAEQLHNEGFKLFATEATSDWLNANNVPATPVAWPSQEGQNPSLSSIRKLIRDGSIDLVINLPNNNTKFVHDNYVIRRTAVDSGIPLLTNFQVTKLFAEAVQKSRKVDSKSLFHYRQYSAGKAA
Experiment: ADP-Glo endpoint assay measuring the ATPase activity of CPS1
Type: biochemical
Settings: geometric mean of a minimum of two values; 50 nM CPS1, 10 μM ATP, 0.2 mM NAG, 60 min at room temperature; read-out: ADPGlo IC50
Protocol: CPS1 was expressed and purified from SF21 insect cells. The full length, human CPS1 gene was cloned into pFastBac HTA and baculovirus was generated using the Bac-to-bac expression system from Invitrogen. P3 virus was used to infect SF21 insect cells at a density of 1.5E6 cells/mL at an MOI of 2. Cells were harvested by centrifugation after 60 hrs and the cell pellet resuspended in lysis buffer (50 mM glycyl glycine pH 7.4, 20 mM KCl, 1 mM TCEP, 10% glycerol and 20 mM imidazole with Roche protease inhibitor tablet) before being lysed with 40 strokes of a Dounce homogenizer on ice. The insoluble fraction of the lysate was then cleared by centrifugation at 30,000 rpm for 30 min. 40 mL of supernatant was mixed with 2 mL of Ni NTA beads for 45 min at 4° C. in a 50 mL conical tube.
The beads were washed with 40 mL of wash buffer (50 mM glycyl glycine pH 7.4, 500 mM NaCl, 1 mM TCEP, 10% glycerol and 50 mM imidazole) by centrifugation and resuspension of the beads three times. Bound CPS1 protein was eluted in 6 mL of elution buffer (50 mM glycyl glycine pH 7.4, 500 mM NaCl, 1 mM TCEP, 10% glycerol and 250 mM imidazole) three times. Elution fractions were combined and concentrated using an Amicon Ultra centrifugation filter with a 10,000 molecular weight cut off. Imidazole was removed by repeated concentration and resuspension in storage buffer in the filter device (50 mM glycyl glycine pH 7.4, 500 mM NaCl, 1 mM TCEP and 20% glycerol). CPS1 was concentrated to a final concentration of ˜3 mg/mL before being aliquoted, flash frozen in liquid nitrogen and stored at −80° C.
CPS1 activity was measured and compounds profiled in an endpoint assay measuring the ATPase activity of CPS1 using the ADP-Glo kit from Promega. 50 nM CPS1 was incubated alone or with varying amounts of tested compound from DMSO stocks in assay buffer (50 mM HEPES pH 7.0, 12.5 mM KHCO3, 1.5 mM (NH4)2SO3, 5 mM MgCl2, 50 mM KCl, 1 mM TCEP, 0.01% TritonX 100, 0.0025% BSA and 0.2 mM NAG) for 20 min in a 3 μL volume in a 384-well plate (Corning Cat#3820). The final concentration of DMSO was 0.04%. The reaction was initiated by the addition of 10 μM ATP, bringing the final volume to 6 μL. After 60 min at room temperature, the reaction was terminated with 3 μL ADP-Glo reagent and incubated at room temperature for 30 min. 3 μL of kinase detection reagent was then added and luminescent signal measured on an Envision plate reader after 30 min.

| Structure (SMILES) | IC50 [µM] |
| --- | --- |
| COc1ccc(C(=O)N2C[C@@H](C)N(C(=O)c3cc4ccccc4[nH]3)[C@H](C)C2)c(F)c1 [Compound 57, ((3R,5R)-4-(1H-indole-2-carbonyl)-3,5-dimethylpiperazin-1-yl)(2-fluoro-4-methoxyphenyl)methanone] | 3.3 |
| COc1ccc(C(=O)N2CCN(C(=O)c3ccc(OC)cc3F)CC2)c(F)c1 [Compound 44, Piperazine-1,4-diylbis((2-fluoro-4-methoxyphenyl)methanone)] | 7.78 |
| COc1ccc(C(=O)N2[C@H](C)CN(C(=O)c3cc(NC(C)=O)ccc3F)C[C@H]2C)c(F)c1 [Compound 103, N-(4-fluoro-3-((3R,5R)-4-(2-fluoro-4-methoxybenzoyl)-3,5-dimethylpiperazine-1-carbonyl)phenyl)acetamide] | > 66.7 |
| COc1ccc(C(=O)N2C[C@H](C)N(C(=O)c3ccc(OC)cc3F)C[C@H]2C)c(F)c1 [Compound 47, ((2S,5R)-2,5-dimethylpiperazine-1,4-diyl)bis((2-fluoro-4-methoxyphenyl)methanone)] | 0.714 |
| COc1ccc(C(=O)N2[C@H](C)CN(C(=O)c3ccc4cc(C)[nH]c4c3)C[C@H]2C)c(F)c1 [Compound 7, ((2R,6R)-2,6-Dimethyl-4-(2-methyl-1H-indole-6-carbonyl)piperazin-1-yl)(2-fluoro-4-methoxyphenyl)methanone] | 0.171 |
| COc1ccc(C(=O)N2[C@H](C)CN(C(=O)Cc3c[nH]c4cccnc34)C[C@H]2C)c(F)c1 [Compound 89, 1-((3R,5R)-4-(2-fluoro-4-methoxybenzoyl)-3,5-dimethylpiperazin-1-yl)-2-(1H-pyrrolo[3,2-b]pyridin-3-yl)ethanone] | 42.7 |
| COc1ccc(C(=O)N2[C@H](C)CN(C(=O)c3c(F)cc(SC)cc3F)C[C@H]2C)c(F)c1 [Compound 16, ((2R,6R)-4-(2,6-Difluoro-4-(methylthio)benzoyl)-2,6-dimethylpiperazin-1-yl)(2-fluoro-4-methoxyphenyl)methanone] | 0.552 |
| COc1ccc(C(=O)N2[C@H](C)CN(C(=O)c3ccc4c[nH]nc4c3)C[C@H]2C)c(F)c1 [Compound 13, ((2R,6R)-4-(2H-Indazole-6-carbonyl)-2,6-dimethylpiperazin-1-yl)(2-fluoro-4-methoxyphenyl)methanone] | 0.711 |
| COc1ccc(C(=O)N2[C@H](C)CN(C(=O)c3ccc(OC(F)F)cc3F)C[C@H]2C)c(F)c1 [Compound 9, ((2R,6R)-4-(4-(Difluoromethoxy)-2-fluorobenzoyl)-2,6-dimethylpiperazin-1-yl)(2-fluoro-4-methoxyphenyl)methanone] | 0.19 |
| COc1ccc(C(=O)N2[C@H](C)CN(C(=O)c3cnc(N)s3)C[C@H]2C)c(F)c1 [Compound 107, (2-aminothiazol-5-yl)((3R,5R)-4-(2-fluoro-4-methoxybenzoyl)-3,5-dimethylpiperazin-1-yl)methanone] | 6.44 |
| COc1ccc(C(=O)N2C[C@@H](C)N(C(=O)c3ccc(OC)cc3Cl)[C@H](C)C2)c(F)c1 [Compound 94, ((3R,5R)-4-(2-chloro-4-methoxybenzoyl)-3,5-dimethylpiperazin-1-yl)(2-fluoro-4-methoxyphenyl)methanone] | > 66.7 |
| COc1ccc(C(=O)N2C[C@@H](C)N(C(=O)c3ccc(OC)cc3F)[C@@H](C)C2)c(F)c1 [Compound 50, ((2R,6S)-2,6-Dimethylpiperazine-1,4-diyl)bis((2-fluoro-4-methoxyphenyl)methanone)] | 6.98 |
| COc1ccc(C(=O)N2[C@H](C)CN(C(=O)c3ccc4cc[nH]c4c3)C[C@H]2C)c(F)c1 [Compound 3, ((2R,6R)-4-(1H-Indole-6-carbonyl)-2,6-dimethylpiperazin-1-yl)(2-fluoro-4-methoxyphenyl)methanone] | 0.127 |
| COc1ccc(C(=O)N2[C@H](C)CN(C(=O)c3cc(OC)ccc3F)C[C@H]2C)c(F)c1 [Compound 96, ((3R,5R)-4-(2-fluoro-4-methoxybenzoyl)-3,5-dimethylpiperazin-1-yl)(2-fluoro-5-methoxyphenyl)methanone] | > 66.7 |
| COc1ccc(C(=O)N2[C@H](C)CN(C(=O)c3ccc4c(c3)N(C)CC4)C[C@H]2C)c(F)c1 [Compound 6, ((2R,6R)-2,6-Dimethyl-4-(1-methylindoline-6-carbonyl)piperazin-1-yl)(2-fluoro-4-methoxyphenyl)methanone] | 7.67 |
| COc1ccc(C(=O)N2[C@H](C)CN(C(=O)c3cc(F)c(OC)cc3F)C[C@H]2C)c(F)c1 [Compound 10, ((2R,6R)-4-(2,5-Difluoro-4-methoxybenzoyl)-2,6-dimethylpiperazin-1-yl)(2-fluoro-4-methoxyphenyl)methanone] | 0.71 |
| COc1ccc(C(=O)N2[C@H](C)CN(C(=O)c3c(F)cc(OC)cc3F)C[C@H]2C)c(F)c1 [Compound 15, ((2R,6R)-4-(2,6-Difluoro-4-methoxybenzoyl)-2,6-dimethylpiperazin-1-yl)(2-fluoro-4-methoxyphenyl)methanone] | 0.42 |
| COc1ccc(OC)c2[nH]c(C(=O)N3C[C@@H](C)N(C(=O)Cc4cc5ccccc5[nH]4)[C@H](C)C3)cc12 [Compound 91, 1-((2R,6R)-4-(4,7-dimethoxy-1H-indole-2-carbonyl)-2,6-dimethylpiperazin-1-yl)-2-(1H-indol-2-yl)ethanone] | > 66.7 |
| COc1ccc(C(=O)N2C[C@H](C)N(C(=O)c3ccc(OC)cc3F)[C@@H](C)C2)c(F)c1 [Compound 49, ((2S,6S)-2,6-Dimethylpiperazine-1,4-diyl)bis((2-fluoro-4-methoxyphenyl)methanone)] | 6.56 |
| COc1ccc(C(=O)N2[C@H](C)CN(C(=O)c3ccc(F)cc3F)C[C@H]2C)c(F)c1 [Compound 12, ((2R,6R)-4-(2,4-Difluorobenzoyl)-2,6-dimethylpiperazin-1-yl)(2-fluoro-4-methoxyphenyl)methanone] | 2.59 |
| COc1ccc(C(=O)N2[C@H](C)CN(C(=O)c3ccc(O)cc3F)C[C@H]2C)c(F)c1 [Compound 65, ((2R,6R)-4-(2-fluoro-4-hydroxybenzoyl)-2,6-dimethylpiperzin-1-yl)(2-fluoro-4-methoxyphenyl)methanone] | 3.79 |
